Square brackets hold non-standard residues; d marks the D form. Peptide text beside a SMILES is read from it.
System: SARS-CoV-2
Assay: microbe, parasite or virus in culture
Details: Severe acute respiratory syndrome coronavirus 2, Vero C1008, 48 h

SMILES	IC50 [µM]	IC50 (read-out: pIC50 (converted)) [µM]
CC[C@H]1OC(=O)[C@H](C)[C@@H](O[C@H]2C[C@@](C)(OC)[C@@H](O)[C@H](C)O2)[C@H](C)[C@@H](O[C@@H]2O[C@H](C)C[C@H](N(C)C(C)C)[C@H]2O)[C@@]2(C)CC(C)=C(O2)[C@H](C)[C@@H](O)[C@]1(C)O [IDREMCINAL]	> 20	> 20
CCCCN1C[C@H](O)[C@@H](O)[C@H](O)[C@H]1CO	> 20	> 20
CC(=O)OC(Cc1ccccc1)(c1ccccc1)C(C)CN1CCCC1 (configuration not stated) [PYRROLIPHENE]	> 20	> 20
Nc1nc(=O)c2sc(=O)n([C@@H]3O[C@H](CO)[C@@H](O)[C@H]3O)c2[nH]1 [ISATORIBINE]	> 25.1	> 25.1
Nc1nc2[nH]cnc2c(=S)[nH]1 [THIOGUANINE]	> 20	> 20
CC(C)(C)C(=O)Oc1ccc2c(c1)O[C@H](c1ccc(OCCN3CCCCC3)cc1)C1=C2COc2cc(OC(=O)C(C)(C)C)ccc21	> 20	> 20
N=C(N)Nc1ccc(C(=O)Oc2ccc3cc(C(=N)N)ccc3c2)cc1 [NAFAMOSTAT]	> 20	> 20
O=C(Cc1ccc(-c2ccc(OCCN3CCOCC3)cc2)cn1)NCc1ccccc1 [TIRBANIBULIN]	> 20	> 20
Nc1cc(N2CCCCC2)nc(N)[n+]1[O-] [MINOXIDIL]	> 20	> 20
Nc1ncc2ncn(CC3(OCP(=O)(O)O)CC3)c2n1 [BESIFOVIR]	> 20	> 20
OC[C@@H]1CCCN2CCCC[C@H]12 [LUPININE]	> 20	> 20
CC(C)N1CCN(c2ccc(Nc3ncc4cc5n(c4n3)C3(CCCCC3)CNC5=O)nc2)CC1 [LEROCICLIB]	> 20	> 20
C/C=C/C[C@@H](C)[C@@H](O)[C@H]1C(=O)N[C@@H](CC)C(=O)N(C)CC(=O)N(C)[C@@H]([C@@H](C)CC)C(=O)N[C@@H](C(C)C)C(=O)N(C)[C@@H](CC(C)C)C(=O)N[C@@H](C)C(=O)N[C@H](C)C(=O)N(C)[C@@H](CC(C)C)C(=O)N(C)[C@@H](CC(C)C)C(=O)N(C)[C@@H](C(C)C)C(=O)N1C [NIM811]	> 20	> 20
Cc1[nH]cnc1CSCCNc1nc(=O)c(Cc2ccc3c(c2)OCO3)c[nH]1 [OXMETIDINE]	> 20	> 20
CC(C)(C)NC(=O)[C@@H]1CN(Cc2cccnc2)CCN1C[C@@H](O)C[C@@H](Cc1ccccc1)C(=O)N[C@H]1c2ccccc2C[C@H]1O	> 10	> 10
Nc1nc(F)nc2c1ncn2[C@@H]1O[C@H](COP(=O)(O)O)[C@@H](O)[C@@H]1O [FLUDARABINE PHOSPHATE]	> 20	> 20
CCN(Cc1ccncc1)C(=O)C(CO)c1ccccc1 (configuration not stated) [TROPICAMIDE]	> 20	> 20
COC[C@H](O)Cn1c(=O)cnn(-c2ccc(Cl)c(C(=O)NCC3(O)CCCCCC3)c2)c1=O [CE-224535]	> 20	> 20
Cc1nc2cc(C(c3ccccc3)n3ccnc3)ccc2[nH]1 (configuration not stated) [IRTEMAZOLE]	> 20	> 20
COc1ccc2c3c1OC1C(O)CCC4C(C2)N(C)CCC341 (configuration not stated)	> 20	> 20
COc1ccccc1Oc1c(NS(=O)(=O)c2ccc(C(C)(C)C)cc2)nc(-c2ncccn2)nc1OCCO [BOSENTAN]	> 20	> 20
O=C(O)Cc1ccc(-c2ccccc2)cc1 [FELBINAC]	> 20	> 20
c1cncc(C2=NCCC2)c1 [MYOSMINE]	> 20	> 20
COc1c(C)c2c(c(O)c1C/C=C(\C)CCC(=O)O)C(=O)OC2 [MYCOPHENOLIC ACID]	> 20	> 20

SMILES	IC50 [µM]	IC50 (read-out: pIC50 (converted)) [µM]
CN1C(=O)CN=C(c2ccccc2F)c2cc(Cl)ccc21 [FLUDIAZEPAM]	> 20	> 20
O=C(Nc1cccnn1)N1CCC(=Cc2cccc(Oc3ccc(C(F)(F)F)cn3)c2)CC1	> 20	> 20
CCCOC(=O)c1ccc(N)cc1 [RISOCAINE]	> 20	> 20
CCOC(=O)C1=C(C)NC(C)=C(C(=O)OC)C1c1cccc([N+](=O)[O-])c1 (configuration not stated) [NITRENDIPINE]	> 20	> 20
COc1cccc(OC)c1-c1cc(C(=O)NC2(C(=O)O)C3CC4CC(C3)CC2C4)nn1-c1ccnc2cc(Cl)ccc12 (configuration not stated) [REMINERTANT]	> 20	> 20
CNC(=O)c1nnc(NC(=O)C2CC2)cc1Nc1cccc(-c2ncn(C)n2)c1OC [CRAVACITINIB]	> 20	> 20
O=C(Nc1c(Cl)cncc1Cl)c1ccc(OC(F)F)c(OCC2CC2)c1 [ROFLUMILAST]	> 20	> 20
CCC[C@@H]1C[C@@H](C(=O)N[C@@H]([C@H]2O[C@H](SC)[C@H](O)[C@@H](O)[C@@H]2O)[C@@H](C)O)N(C)C1	> 20	> 20
CN(C)CCCN1c2ccccc2Sc2ccc(C(F)(F)F)cc21 [TRIFLUPROMAZINE]	> 20	> 20
CN1Cc2ccccc2[C@@H]2c3cccc4[nH]cc(c34)C[C@H]21	> 20	> 20
CC(C)N1CCN(c2ccc(N3CCN(c4ccc(OC[C@H]5OC[C@](Cn6cncn6)(c6ccc(F)cc6F)O5)cc4)CC3)cc2)C1=O (racemic) [PRAMICONAZOLE]	> 20	> 20
CN(C)CCCn1c(=O)c2ccccc2c2ccccc21 [FANTRIDONE]	> 20	> 20
CNNCc1ccc(C(=O)NC(C)C)cc1 [PROCARBAZINE]	> 20	> 20
CCN(CC)CCNC(=O)c1ccc(N)c(Cl)c1 [DECLOPRAMIDE]	> 20	> 20
CCN(CC)C(C)C(=O)c1ccccc1 (configuration not stated) [DIETHYLPROPION]	> 20	> 20
CCCN(CCC)CCc1ccc(OC)c(OCCc2ccccc2)c1	> 20	> 20
CC(C)C[C@H]1C(=O)N2CCC[C@H]2[C@]2(O)O[C@](NC(=O)[C@@H]3C=C4c5cccc6[nH]c(Br)c(c56)CC4N(C)C3)(C(C)C)C(=O)N12 (some centres not stated)	> 20	> 20
C=CCc1ccc(OC)cc1 [ESTRAGOLE]	> 20	> 20
CCC[C@@H]1CC(=O)N([C@@H](CC)C(N)=O)C1 [BRIVARACETAM]	> 20	> 20
NS(=O)(=O)Cc1noc2ccccc12 [ZONISAMIDE]	> 20	> 20
NC(=O)CCCCC1CCSS1 (configuration not stated) [THIOCTIC ACID AMIDE]	> 20	> 20
Cc1ccc2nc(N3CCS(=O)(=O)c4ccccc4C3)nc(NCC3(N)COC3)c2c1 [ZIRESOVIR]	> 20	> 20
C[C@H](N)C(=O)N[C@H](CCC(N)=O)C(=O)O (H-Ala-[dQ]-OH)	> 20	> 20
C[C@]12CC[C@@H]3c4ccc(O)cc4CC[C@H]3[C@@H]1C[C@@H](O)[C@@H]2O [ESTRIOL]	> 20	> 20

SMILES	IC50 [µM]	IC50 (read-out: pIC50 (converted)) [µM]
CCCCC1(COC(=O)CCC(=O)O)C(=O)N(c2ccccc2)N(c2ccccc2)C1=O [SUXIBUZONE]	> 20	> 20
CCCCCCCCCCCCCCCC(=O)OCC(O)C1OC(=O)C(O)=C1O (configuration not stated)	> 20	> 20
CCOC(=O)Nc1nc2ccccc2[nH]1 [LOBENDAZOLE]	> 20	> 20
CCO[C@@H](Cc1ccc(OCCc2ccc(OS(C)(=O)=O)cc2)cc1)C(=O)O [TESAGLITAZAR]	> 20	> 20
C=CC(=O)N1CCC(CNc2ncnc(N)c2-c2ccc(Oc3ccccc3)cc2)CC1 [EVOBRUTINIB]	> 20	> 20
CCCCCCCCCCCC[N+](C)(C)CC(=O)O	> 20	> 20
CC(C)(C)C(O)(COc1ccc(Cl)cc1)Cn1cncn1 (configuration not stated)	> 20	> 20
CN1CC[C@@]23CCCC[C@@H]2C1Cc1ccc(O)cc13	> 20	> 20
CN(C)C(=O)Oc1cc(OC(=O)N(C)C)cc(C(O)CNC(C)(C)C)c1 (configuration not stated) [BAMBUTEROL]	> 20	> 20
Cc1cc(=O)oc2cc(O)cc(O)c12 [5,7-DIHYDROXY-4-METHYLCOUMARIN]	> 20	> 20
C=CCC1(C(C)CCC)C(=O)NC(=S)NC1=O (configuration not stated) [THIAMYLAL]	> 20	> 20
CCCC(=O)OC1(C(=O)CO)CCC2C3CCC4=CC(=O)CCC4(C)C3C(O)CC21C (configuration not stated)	> 20	> 20
Cc1cnc(NC(=O)Nc2cc(Br)c(C)cc2OC[C@@H]2CNCCO2)cn1 [RABUSERTIB]	> 20	> 20
CC(C)C[C@H](NC(=O)N1CCCCCC1)C(=O)N[C@H](Cc1cn(C)c2ccccc12)C(=O)N[C@H](Cc1ccccn1)C(=O)O	> 20	> 20
Cc1nccn1CC1CCc2c(c3ccccc3n2C)C1=O (configuration not stated) [ONDANSETRON]	> 20	> 20
CC(C)(C)C(=O)OCC(=O)[C@H]1CC[C@H]2[C@@H]3CCC4=CC(=O)CC[C@]4(C)[C@H]3CC[C@]12C [DESOXYCORTICOSTERONE PIVALATE]	> 20	> 20
Nc1ccc(S(=O)(=O)Nc2ccccn2)cc1 [SULFAPYRIDINE]	> 20	> 20
CCCCC1C(=O)N(c2ccccc2)N(c2ccc(O)cc2)C1=O (configuration not stated) [OXYPHENBUTAZONE ANHYDROUS]	> 20	> 20
Nc1nonc1/C(=N/O)Nc1ccc(F)c(Cl)c1	> 20	> 20
O=C(CNC(=O)c1cccc(C(F)(F)F)c1)NC1CN([C@H]2CC[C@@](O)(c3cncs3)CC2)C1 [JNJ-41443532]	> 20	> 20
CCN1C[C@]2(COC)CC[C@H](O)[C@]34C5C[C@@H]6[C@@H](OC)C[C@@](O)(C5[C@H]6OC)[C@@](O)([C@H]13)[C@@H](OC)C24 (some centres not stated)	> 20	> 20
Cc1ccc2c(c1)c1c3n2CCNC3CCC1 (configuration not stated) [PIRLINDOLE]	> 20	> 20
CCCC(=O)O [BUTYRIC ACID]	> 20	> 20
